Values joined by “and” are separate entries in the source; they are usually repeats but may differ in a detail not shown here. Equal values may be shown once.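 Step 1: Grow cells in 96-well plates. Step 2: Expose to compound for 48 hours at 5 concentrations. Step 3: Interpolate endpoints linearly; if unreached, use highest concentration. GI50 = concentration required for 50% inhibition of growth. Definition used: TGI = concentration required for complete inhibition of growth.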
How the values were obtained:
Assay in all cases: inhibition of tumour cell growth, NCI panel, 48 h
NCI-H23 lung = test system: NCI-H23 lung
OVCAR-4 ovarian = test system: OVCAR-4 ovarian
NCI-H522 lung = test system: NCI-H522 lung
A549 NSCLC = test system: A549 NSCLC
SN12C renal = test system: SN12C renal
SW-620 colon = test system: SW-620 colon
CCRF-CEM leukemia = test system: CCRF-CEM leukemia
RPMI-8226 leukemia = test system: RPMI-8226 leukemia
HL-60(TB) leukemia = test system: HL-60(TB) leukemia
U251 CNS = test system: U251 CNS

Work on Cn1cc(C2=C(c3cn(C)c4c([N+](=O)[O-])cccc34)C(=O)NC2=O)c2ccccc21 yielded a GI50 (NCI-H23 lung) of over 25 µM, a TGI (NCI-H23 lung) of over 25 µM and a GI50 (OVCAR-4 ovarian) of over 25 µM. For the same compound, the TGI (OVCAR-4 ovarian) was over 25 µM, the GI50 (NCI-H522 lung) was over 25 µM and the TGI (NCI-H522 lung) was over 25 µM. It also gave a GI50 (A549 NSCLC) of over 25 µM, a TGI (A549 NSCLC) of over 25 µM and a GI50 (SN12C renal) of over 25 µM. It also gave a TGI (SN12C renal) of over 25 µM, a GI50 (SW-620 colon) of over 25 µM and a TGI (SW-620 colon) of over 25 µM. It also gave a GI50 (CCRF-CEM leukemia) of over 25 µM, a TGI (CCRF-CEM leukemia) of over 25 µM and a GI50 (RPMI-8226 leukemia) of over 25 µM. It also gave a TGI (RPMI-8226 leukemia) of over 25 µM, a GI50 (HL-60(TB) leukemia) of over 25 µM and a TGI (HL-60(TB) leukemia) of over 25 µM. The GI50 (U251 CNS) was over 25 µM and the TGI (U251 CNS) was over 25 µM.

In the case of COc1ccc2c(c1)[nH]c(=O)c1c3cc(OC)ccc3cn21, the GI50 (NCI-H23 lung) is reported as 0.046 µM, the TGI (NCI-H23 lung) is reported as 1.12 µM and the GI50 (OVCAR-4 ovarian) is reported as 0.05 µM. For the same compound, the TGI (OVCAR-4 ovarian) was 1.82 µM, the GI50 (NCI-H522 lung) was 0.022 µM and the TGI (NCI-H522 lung) was 0.564 µM. For the same compound, the GI50 (A549 NSCLC) was 0.0265 µM, the TGI (A549 NSCLC) was 1.28 µM and the GI50 (SN12C renal) was 0.0362 µM. The TGI (SN12C renal) was 2.3 µM, the GI50 (SW-620 colon) was under 0.01 µM and the TGI (SW-620 colon) was 1.31 µM. The GI50 (CCRF-CEM leukemia) was under 0.0132 µM, the TGI (CCRF-CEM leukemia) was 0.0751 µM and the GI50 (RPMI-8226 leukemia) was 0.016 µM. The TGI (RPMI-8226 leukemia) was 0.0874 µM, the GI50 (HL-60(TB) leukemia) was under 0.01 µM and the TGI (HL-60(TB) leukemia) was under 0.01 µM. It also gave a GI50 (U251 CNS) of under 0.01 µM and a TGI (U251 CNS) of 1.23 µM.

For COc1c(C(=O)c2ccc([N+](=O)[O-])cc2)cc(C(C)(C)C)cc1C(C)(C)C, the TGI (NCI-H23 lung) was over 100 µM, the TGI (OVCAR-4 ovarian) was over 100 µM and the TGI (NCI-H522 lung) was 56.9 µM. For the same compound, the TGI (A549 NSCLC) was over 100 µM, the TGI (SN12C renal) was over 100 µM and the TGI (SW-620 colon) was over 100 µM. The TGI (CCRF-CEM leukemia) was 97.5 µM, the TGI (RPMI-8226 leukemia) was 31.7 µM and the TGI (HL-60(TB) leukemia) was 47.2 µM. For the same compound, the TGI (U251 CNS) was 50.1 µM.

COC(=O)/C(=N\Nc1nc(=S)[nH]n1N)C(C#N)c1ccccc1 (stereo not given) gave a TGI (NCI-H23 lung) of over 100 µM, a TGI (OVCAR-4 ovarian) of over 100 µM and a TGI (NCI-H522 lung) of over 100 µM. For the same compound, the TGI (A549 NSCLC) was over 100 µM, the TGI (SN12C renal) was over 100 µM and the TGI (SW-620 colon) was over 100 µM. For the same compound, the TGI (CCRF-CEM leukemia) was over 100 µM, the TGI (RPMI-8226 leukemia) was over 100 µM and the TGI (HL-60(TB) leukemia) was over 100 µM. For the same compound, the TGI (U251 CNS) was over 100 µM.

For Clc1ccc2c(c1)N(CCCN1CCCC1)c1ccccc1S2, the GI50 (NCI-H23 lung) was 10.2 µM, the TGI (NCI-H23 lung) was 24 µM and the GI50 (OVCAR-4 ovarian) was 7.82 µM. For the same compound, the TGI (OVCAR-4 ovarian) was 21.2 µM, the GI50 (NCI-H522 lung) was 2.23 µM and the TGI (NCI-H522 lung) was 7.11 µM. For the same compound, the GI50 (A549 NSCLC) was 11 µM, the TGI (A549 NSCLC) was 24.5 µM and the GI50 (SN12C renal) was 11.7 µM. It also gave a TGI (SN12C renal) of 27.3 µM, a GI50 (SW-620 colon) of 10.7 µM and a TGI (SW-620 colon) of 25.8 µM. For the same compound, the GI50 (CCRF-CEM leukemia) was 3.93 µM, the TGI (CCRF-CEM leukemia) was 14.2 µM and the GI50 (RPMI-8226 leukemia) was 7.4 µM. The TGI (RPMI-8226 leukemia) was 24.3 µM, the GI50 (HL-60(TB) leukemia) was 4.34 µM and the TGI (HL-60(TB) leukemia) was 16.8 µM. It also gave a GI50 (U251 CNS) of 6.96 µM and a TGI (U251 CNS) of 20.5 µM.

CN(Cc1cc(Br)cc(Br)c1O)Cc1cc(Br)cc(Br)c1O was tested, and the GI50 (NCI-H23 lung) was 3.28 µM, the TGI (NCI-H23 lung) was 22.3 µM and the GI50 (OVCAR-4 ovarian) was 1.79 µM. For the same compound, the TGI (OVCAR-4 ovarian) was 18.9 µM, the GI50 (NCI-H522 lung) was 1.73 µM and the TGI (NCI-H522 lung) was 7.14 µM. For the same compound, the GI50 (A549 NSCLC) was 2.19 µM, the TGI (A549 NSCLC) was 15.4 µM and the GI50 (SN12C renal) was 2.5 µM. It also gave a TGI (SN12C renal) of 16.7 µM, a GI50 (SW-620 colon) of 2.33 µM and a TGI (SW-620 colon) of 16.9 µM. For the same compound, the GI50 (CCRF-CEM leukemia) was 1.31 µM, the TGI (CCRF-CEM leukemia) was over 100 µM and the GI50 (RPMI-8226 leukemia) was 2.77 µM. It also gave a TGI (RPMI-8226 leukemia) of 47.9 µM, a GI50 (HL-60(TB) leukemia) of 1.08 µM and a TGI (HL-60(TB) leukemia) of 10.9 µM. The GI50 (U251 CNS) was 0.689 µM and the TGI (U251 CNS) was 13.3 µM.

With CC1(C)CCC2=C(O1)c1ccccc1C(=O)C2=O the GI50 (NCI-H23 lung) was 1.57 µM, the TGI (NCI-H23 lung) was 3.91 µM and 1.09 µM and the GI50 (OVCAR-4 ovarian) was 1.27 µM. For the same compound, the TGI (OVCAR-4 ovarian) was 2.53 µM and 5.78 µM, the GI50 (NCI-H522 lung) was 1.89 µM and the TGI (NCI-H522 lung) was 4.79 µM and 1.52 µM. For the same compound, the GI50 (A549 NSCLC) was 2.15 µM, the TGI (A549 NSCLC) was 5.14 µM and 1.73 µM and the GI50 (SN12C renal) was 0.855 µM. For the same compound, the TGI (SN12C renal) was 2.2 µM and 1.04 µM, the GI50 (SW-620 colon) was 1.86 µM and the TGI (SW-620 colon) was 3.93 µM and 1.09 µM. For the same compound, the GI50 (CCRF-CEM leukemia) was 3.3 µM, the TGI (CCRF-CEM leukemia) was over 100 µM and the GI50 (RPMI-8226 leukemia) was 1.46 µM. For the same compound, the TGI (RPMI-8226 leukemia) was 5.76 µM and 1.48 µM, the GI50 (HL-60(TB) leukemia) was 2.83 µM and the TGI (HL-60(TB) leukemia) was over 100 µM. The GI50 (U251 CNS) was 1.49 µM and the TGI (U251 CNS) was 2.95 µM and 1.13 µM.
